# Laboratory results published in article PMC7557582, “Broad-Spectrum Antimicrobial Activity and Improved Stability of a D-Amino Acid Enantiomer of DMPC-10A, the Designed Derivative of Dermaseptin Truncates” (Antibiotics, 2020).
# Key:
# S. aureus (NCTC 10788) = assay type: cell-based, Staphylococcus aureus; settings: S. aureus (NCTC 10788); broth-dilution, MHB pH 7.4, 37 °C; positive control
# Protocol: (§1) Gram-positive bacteria Staphylococcus aureus (NCTC 10788) and Enterococcus faecalis (NCTC 12697) and Gram-negative bacteria Escherichia coli (NCTC 10418), Pseudomonas aeruginosa (ATCC 27853), and Klebsiella pneumoniae (ATCC 43816) were tested. […] All the bacterial strains were inoculated in Mueller Hinton broth (MHB), pH 7.4 (Oxiod, Basingstoke, UK) at 37 °C. Then, the log-phase bacteria were mixed with the peptide at the concentrations from 512 to 1 µM in two-fold dilution, in a 96 well-plate. The wells contained sterilized MHB and bacteria cultures were employed as a blank and growth control, respectively.
# MRSA (NCTC 12493) = assay type: cell-based, methicillin-resistant S. aureus; settings: MRSA (NCTC 12493); broth-dilution, MHB pH 7.4, 37 °C; positive control
# Protocol: as §1
# E. faecalis (NCTC 12697) = assay type: cell-based, Enterococcus faecalis; settings: E. faecalis (NCTC 12697); broth-dilution, MHB pH 7.4, 37 °C; positive control
# Protocol: as §1
# E. coli (NCTC 10418) = assay type: cell-based, Escherichia coli; settings: E. coli (NCTC 10418); broth-dilution, MHB pH 7.4, 37 °C; positive control
# Protocol: as §1
# [1] = system: K. pneumoniae (ATCC 43816); assay type: cell-based, Klebsiella pneumoniae; settings: K. pneumoniae (ATCC 43816); broth-dilution, MHB pH 7.4, 37 °C; positive control
# Protocol: as §1
# [2] = system: K. pneumoniae (ATCC BAA 1705); assay type: cell-based, Klebsiella pneumoniae; settings: K. pneumoniae (ATCC BAA 1705); broth-dilution, MHB pH 7.4, 37 °C; positive control
# Protocol: as §1
# [3] = system: K. pneumoniae (ATCC BAA 2342); assay type: cell-based, Klebsiella pneumoniae; settings: K. pneumoniae (ATCC BAA 2342); broth-dilution, MHB pH 7.4, 37 °C; positive control
# Protocol: as §1
# [4] = system: P. aeruginosa (ATCC 27853); assay type: cell-based, Pseudomonas aeruginosa; settings: P. aeruginosa (ATCC 27853); broth-dilution, MHB pH 7.4, 37 °C; positive control
# Protocol: as §1
MIC of antibiotic (S. aureus (NCTC 10788)),MIC of antibiotic (MRSA (NCTC 12493)),MIC of antibiotic (E. faecalis (NCTC 12697)),MIC of antibiotic (E. coli (NCTC 10418)),MIC of antibiotic [1],MIC of antibiotic [2],MIC of antibiotic [3],MIC of antibiotic [4],Structure (SMILES)
2/6.26 µg/mL,2/6.26 µg/mL,4/12.53 µg/mL,1/3.13 µg/mL,2/6.26 µg/mL,>32/>100.21 µg/mL,>32/>100.21 µg/mL,2/6.26 µg/mL,"CCn1cc(C(=O)O)c(=O)c2cc(F)c(N3CCNCC3)cc21 [Norfloxacin, reference compound]"
<0.0625/<0.13 µg/mL,0.125/0.26 µg/mL,4/8.38 µg/mL,1/2.09 µg/mL,1/2.09 µg/mL,2/4.19 µg/mL,4/8.38 µg/mL,0.25/0.52 µg/mL,"CNC(C)C1CCC(N)C(OC2C(N)CC(N)C(OC3OCC(C)(O)C(NC)C3O)C2O)O1 (stereo not shown) [Gentamicin, reference compound]"
